Test results reported in patent publication US20150140002A1, “USE OF A PCSK9 INHIBITOR TO TREAT […]” (Sanofi, priority 2013, published 2015).

Legend:
[1] = test system: patient population with non-familial hypercholesterolemia or with heterozygous familial hypercholesterolemia; experiment: Phase 2 studies / earlier clinical data of mAb316P; format: in vivo, human
Source text: The efficacy on LDL-C lowering was associated with consistent results in total-C, ApoB, non-HDL-C and ApoB/ApoA-1 ratio and a positive trend for HDL-C, TG and Lp(a).

[2] = test system: patients with primary hypercholesterolemia (heFH and non-FH) who are intolerant to statins; experiment: Example 3: safety (TEAEs, skeletal muscle-related events); conditions: in vivo
anti-mAb316P antibodies = experiment: Example 2: anti-mAb316P antibody (ADA) bridging immunoassay and neutralizing antibody assay; format: in vivo, human
Method: Other endpoints Anti-MAb316P Antibody Assessments: Anti-mAb316P antibodies included the antibody status (positive/negative) and antibody titers.
Sampling time: Serum samples for anti-mAb316P antibody determination were drawn periodically throughout the study. The first scheduled sample at randomization visit was obtained before IMP injection (predose).
Anti-mAb316P antibody samples were analyzed using a validated non-quantitative, titer-based bridging immunoassay. It involved an initial screen, a confirmation assay based on drug specificity, and a measurement of the titer of anti-MAb316P antibodies in the sample. The lower limit of detection was approximately 1.5 ng/mL.
Samples that were positive in the ADA assay were assessed for neutralizing antibodies using a validated, non-quantitative, competitive ligand binding assay. The lower limit of detection based on a monoclonal positive control neutralizing antibody is 390 ng/mL.

[3] = test system: patients with primary hypercholesterolemia (heFH and non-FH) who are intolerant to statins; experiment: Example 3: randomized double-blind trial mAb316P versus ezetimibe (atorvastatin calibrator arm), lipid parameters; format: in vivo, human
Source text: The present study was a randomized, double-blind, double-dummy, active-controlled, parallel-group, multi-national, multi-center study in patients with primary hypercholesterolemia and moderate, high, or very high CV risk who are intolerant to statins. The study design is illustrated in FIG. 7.
Primary Efficacy Endpoint: The primary efficacy endpoint was the percent change in calculated LDL-C from baseline to week 24, which was defined as: 100× (calculated LDL-C value at week 24—calculated LDL-C value at baseline)/calculated LDL-C value at baseline. A baseline LDL-C value was needed for each patient as the baseline calculated LDL-C value was the last LDL-C level obtained before the first double-blind study drug injection.
Total-C, HDL-C, TG, ApoB, ApoA-1, and Lp(a) were directly measured by a central laboratory as per a predetermined schedule. Low-density lipoprotein cholesterol was calculated using the Friedewald formula at all visits (except week −15 and the follow-up visit). If TG values exceeded 400 mg/dL (4.52 mmol/L), then the central lab measured (via the beta quantification method) the LDL-C rather than calculate it. Non-HDL-C was calculated by subtracting HDL-C from the total-C. Ratio ApoB/ApoA-1 was calculated.
The double-blind period efficacy endpoint analysis results in the order of statistical hierarchical testing as specified in the above protocol (with multiple testing controlled at the 0.05 significance level) is set forth in Table 12. Primary and key secondary efficacy analyses were performed comparing mAb316P-treated patients to ezetimibe-treated patients. For clarification, the ITT analysis is defined for patients in the ITT population and includes all endpoint assessments in an analysis window, regardless of study treatment dosing status (i.e. includes post-treatment assessments). The on-treatment analysis is defined for patients in the mITT population and includes all endpoint assessments from the first double-blind study drug (capsule or injection, whichever comes first) up to 21 days after the last double-blind study drug injection, or 3 days after the last capsule intake, whichever came first (i.e. includes assessments in the efficacy treatment period). Note: A result is statistically significant if the p-value is s 0.05, in the order of the hierarchical testing.

[4] = Example 2: serum mAb316P concentration (ELISA); format: in vivo, human
Method: If needed, total and free PCSK9 concentrations could be measured from the same PK sample.
To collect information on the absorption phase, an optional PK sample was collected at 5 days (±2) after the week 22 IMP injection or at 5 days (±2) after any subsequent IMP injection while the subject was on treatment.
The lower limit of quantification (LLQ) for this assay is 0.078 μg/mL.

[5] = test system: healthy subjects and hypercholesterolemic patients (familial or non-familial); experiment: Phase 1 studies of mAb316P (safety, tolerability, PK/PD; IV or SC); format: in vivo, human
Method: Two studies were single dose administration (one study with IV administration of doses from 0.3 mg to 12 mg/kg and another study with SC administration of doses from 50 mg to 250 mg) conducted in healthy subjects with LDL-C>100 mg/dL for whom statin therapy was not indicated. The third study was conducted in hypercholesterolemic patients (familial or non-familial) with single to multiple SC administration of 50 mg, 100 mg, 150 mg and 200 mg either as add-on to stable doses of atorvastatin from 10 mg to 40 mg/day or as monotherapy.
No pattern of adverse events (AEs) related to the drug was identified. […] The magnitude and duration of these reductions were positively related to the dose administered. It should also be noted that in the third study, results were similar in the familial and non-familial hypercholesterolemic patients.

[6] = clinical data available at commencement of Example 3 study

mAb316P: human anti-PCSK9 antibody; heavy chain SEQ ID NO:5, light chain SEQ ID NO:9; HCVR SEQ ID NO:1, LCVR SEQ ID NO:6
LDL-C lowering effect [1, 6]: significant LDL-C lowering effect | tolerability [1, 6]: generally well-tolerated | serum total concentrations of mAb316P during the 8-week follow-up period ([1]; preliminary PK data from Phase 2 studies): still detectable, but at very low levels | patients positively adjudicated for non-fatal MI [2]: one (0.8%) patient (%) | anti-drug antibody titers (anti-mAb316P antibodies; all anti-drug antibody-positive patients): ≤ 240 | neutralizing anti-drug antibody (anti-mAb316P antibodies; in vivo): no neutralizing anti-drug antibody | patients with treatment emergent anti-drug antibodies (anti-mAb316P antibodies; in vivo): 6 (12%) patients (%) | Apo A-1 Diff mAb316P vs ezetimibe ([3]; WK12, ITT analysis): Diff: 1.6% | Apo A-1 LS mean percent change from baseline ([3]; WK12, ITT analysis): LS mean: 5.5% | Apo B Diff mAb316P vs ezetimibe ([3]; WK12, ITT analysis): Diff: −24.5% | Apo B LS mean percent change from baseline ([3]; WK12, ITT analysis): LS mean: −36.1% | Fasting Triglycerides Diff mAb316P vs ezetimibe ([3]; WK12, ITT analysis): Diff: 1.3% | Fasting Triglycerides LS mean percent change from baseline ([3]; WK12, ITT analysis): LS mean: −8.1% | HDL-C Diff mAb316P vs ezetimibe ([3]; WK12, ITT analysis): Diff: 1.4% | HDL-C LS mean percent change from baseline ([3]; WK12, ITT analysis): LS mean: 9.0% | LDL-C Diff mAb316P vs ezetimibe ([3]; WK12, ITT analysis): Diff: −31.5% | LDL-C LS mean percent change from baseline ([3]; WK12, ITT analysis): LS mean: −47.0% | Lp(a) Diff mAb316P vs ezetimibe ([3]; WK12, ITT analysis): Diff: −17.2% | Lp(a) LS mean percent change from baseline ([3]; WK12, ITT analysis): LS mean: −21.7% | Non-HDL-C Diff mAb316P vs ezetimibe ([3]; WK12, ITT analysis): Diff: −25.7% | Non-HDL-C LS mean percent change from baseline ([3]; WK12, ITT analysis): LS mean: −25.7% | Total Cholesterol Diff mAb316P vs ezetimibe ([3]; WK12, ITT analysis): Diff: −21.1% | Total Cholesterol LS mean percent change from baseline ([3]; WK12, ITT analysis): LS mean: −32.7% | LDL-C Diff mAb316P vs ezetimibe ([3]; WK12, on-treatment analysis): Diff: −33.1% | LDL-C LS mean percent change from baseline ([3]; WK12, on-treatment analysis): LS mean: −51.2% | Apo A-1 Diff mAb316P vs ezetimibe ([3]; WK24, ITT analysis): Diff: 1.9% | Apo A-1 LS mean percent change from baseline ([3]; WK24, ITT analysis): LS mean: 4.8% | Fasting Triglycerides Diff mAb316P vs ezetimibe ([3]; WK24, ITT analysis): Diff: −5.6% | Fasting Triglycerides LS mean percent change from baseline ([3]; WK24, ITT analysis): LS mean: −9.2% | HDL-C Diff mAb316P vs ezetimibe ([3]; WK24, ITT analysis): Diff: 0.9% | HDL-C LS mean percent change from baseline ([3]; WK24, ITT analysis): LS mean: 7.7% | Proportion with LDL-C <70 mg/dL ([3]; WK24, ITT analysis): Proportion = 32.5% | Proportion with Very High CV LDL-C <70 mg/dL OR Moderate/High CV LDL-C <100 mg/dL ([3]; WK24, ITT analysis): Proportion = 41.3% | Total Cholesterol Diff mAb316P vs ezetimibe ([3]; WK24, ITT analysis): Diff: −20.8% | Total Cholesterol LS mean percent change from baseline ([3]; WK24, ITT analysis): LS mean: −31.8% | Apo B Diff mAb316P vs ezetimibe ([3]; WK24, on-treatment analysis): Diff: −28.2% | Apo B LS mean percent change from baseline ([3]; WK24, on-treatment analysis): LS mean: −42.6% | LDL-C Diff mAb316P vs ezetimibe ([3]; WK24, on-treatment analysis): Diff: −35.1% | LDL-C LS mean percent change from baseline ([3]; WK24, on-treatment analysis): LS mean: −52.2% | Non-HDL-C Diff mAb316P vs ezetimibe ([3]; WK24, on-treatment analysis): Diff: −29.8% | Non-HDL-C LS mean percent change from baseline ([3]; WK24, on-treatment analysis): LS mean: −46.9% | Proportion with LDL-C <70 mg/dL ([3]; WK24, on-treatment analysis): Proportion = 39.0% | Proportion with Very High CV LDL-C <70 mg/dL OR Moderate/High CV LDL-C <100 mg/dL ([3]; WK24, on-treatment analysis): Proportion = 50.4% | patients who reached LDL-C goal at week 24 ([3]; goal <70 mg/dL very high risk, <100 mg/dL moderate and high risk): 41.9% | LS mean LDL-C value at week 24 ([3]; in vivo): 108.5 mg/dL | change in LDL-C level from baseline ([3]; week 24): -84 mg/dL | serum MAb316P Ctrough, mean (SD) ([4]; Week 4, non-uptitrated (n = 32)): 5784.7 (2456.4) ng/mL | serum MAb316P Ctrough, mean (SD) ([4]; Week 4, uptitrated at Week 12 (n = 14)): 4533.9 (3996.5) ng/mL | serum MAb316P Ctrough, mean (SD) ([4]; Week 12, non-uptitrated (n = 32)): 5979.0 (2780.3) ng/mL | serum MAb316P Ctrough, mean (SD) ([4]; Week 12, uptitrated at Week 12 (n = 14)): 5702.9 (4816.4) ng/mL | serum MAb316P Ctrough, mean (SD) ([4]; Week 24, non-uptitrated, 75 mg Q2W (n = 32)): 6991.4 (4418.4) ng/mL | serum MAb316P Ctrough, mean (SD) ([4]; Week 24, uptitrated to 150 mg Q2W at Week 12 (n = 14)): 14772.2 (10201.7) ng/mL | change of serum mAb316P levels after uptitration ([4]; patients uptitrated at Week 12 (75 to 150 mg Q2W)): approximately doubled | reductions from baseline in LDL-C ([5]; Phase 1 studies, up to (maximum)): up to 60% | tolerability ([5]; healthy subjects and patients, all doses): generally well tolerated at all doses
